Experimental findings from patent US20250186411A1, “Methods of Treating Disorders Associated with Overactivation of IKKB” (The United States Government as represented by the …, priority 2023, published 2025) are described below.

Data set [1] relates to differentiated human podocytes. Put plainly: RNA sequencing and enrichment analysis of BT503-treated podocytes. The format is cell-based. The note with it: vs DMSO in the setting of LPS treatment. The source says: RNA sequencing data was processed as previously described (Z. Wang, A. Ma'ayan, (2016) F1000Res 5, 1574). Briefly, sequencing reads were first aligned to the human genome (version hg38) using Spliced Transcripts Alignment to a Reference (STAR 2.4.1c) (A. Dobin et al., (2013) Bioinformatics 29, 15-21). Aligned reads were then quantified to the transcriptome (UCSC hg38 annotation) at the gene level using featureCounts (v1.4.6) (Y. Liao, G. K. Smyth, W. Shi, (2014) Bioinformatics 30, 923-930). Read counts were normalized to count per million (CPM), and differentially expressed genes were identified using BioJupies (A. Lachmann et al., (2018) Nat Commun 9, 1366). Enrichment analyses of the differentially expressed genes were performed with Enrichr (33, 66) with WikiPathways (D. N. Slenter et al., (2018) Nucleic Acids Res 46, D661-d667) and KEGG (M. Kanehisa, S. Goto, (2000) Nucleic Acids Res 28, 27-30) databases. Normalized read counts were used to create matrix visualized heat maps on Morpheus by Broad Institute (https://software.broadinstitute.org/morpheus) with hierarchical clustering, sorted by one minus Pearson's correlation and clustered by rows. […]

Data set [2] relates to KLF15 promoter (pEZX-FR03hKLF15p human podocytes). Put plainly: Half maximal effective concentration (EC50) of KLF15 reporter activity. The class given is cell-based. The conditions noted are these: KLF15 reporter activity, dose-response; read-out: EC50. As for the experimental part:
The EC50 was determined using nonlinear regression and then choosing the equation of Sigmoidal function, 4PL method (X is log(concentration); or the equation of log(agonist) vs. response—variable slope).
To identify small molecule inducers of KLF15 expression in human podocytes, human podocytes were generated with a dual reporter, firefly luciferase directed at the KLF15 promoter region and renilla luciferase (pEZX-FR03hKLF15p). […] The positive controls were inducers of KLF15 expression, dexamethasone (DEX) and all-trans retinoic acid (atRA), and […] and cell-free wells served as negative controls.

The next data set deals with mice. The conditions noted are these: as compared to DMSO treatment.
In data set [3] the test system is NF-κB signaling (p50, p65, IκBα).
From the text: Differentiated human podocytes were lysed with a fractionation buffer containing 1× protease and phosphatase inhibitor cocktail (Thermo Fisher Scientific) and separate cytoplasmic and nuclear fractions using a modified procedure described before (72).
Data set [4] concerns the target hERG Human Potassium Ion Channel (Homo sapiens, UniProt Q12809). Put plainly: hERG Human Potassium Ion Channel Cell Based QPatch CiPA Assay. The text has this:
A 500 ms pulse to −40 mV is delivered to measure the leaking current, which is subtracted from the tail current on-line. The cell is subsequently depolarized to +40 mV for 500 ms and then to −80 mV over a 100 ms ramp to elicit the hERG tail current. The parameters measured were the maximum tail current evoked on stepping to 40 mV and ramping back to −80 mV from the test pulse. All data were filtered for seal quality, seal drop, and current amplitude.
In general terms: The hERG channel carries a current that helps repolarise heart muscle cells.

A further data set relates to human podocytes. Put plainly: Cell viability of podocytes (renilla activity, MTS assay). The class given is cell-based. How it is done:
(§1) Differentiated pEZX-FR03hKLF5p human podocytes were treated with 25 μg/ml lipopolysaccharide (LPS) or vehicle and 1 μM KLF15 agonist or vehicle control for 24 hours. Firefly and renilla luciferase assay were measured initially to determine relative KLF15 reporter activity.
Differentiated pEZX-FR03hKLF5p human podocytes were treated with 0.4 μg/ml adriamycin (ADR) or vehicle and 1 μM KLF15 agonist or vehicle control for 24 hours. Firefly and renilla luciferase assay were measured initially to determine relative KLF15 reporter activity.
To assess cell viability, the CellTiter 96® AQueous One Solution Reagent (Promega) was added to the culture media and plates were incubated for 2 hours at 37° C. with 5% CO2.

For data set [5], the system named is KLF15 promoter (pEZX-FR03hKLF5p human podocytes). Description: Lipopolysaccharide treatment in human podocytes, KLF15 reporter activity. The class given is cell-based. The conditions noted are these: as compared to DMSO. How it is done: as §1
A further data set deals with IKBKB^M96V mutant (Homo sapiens, UniProt O14920, M96V).
Chain of IKBKB^M96V mutant (O14920 whole entry M96V): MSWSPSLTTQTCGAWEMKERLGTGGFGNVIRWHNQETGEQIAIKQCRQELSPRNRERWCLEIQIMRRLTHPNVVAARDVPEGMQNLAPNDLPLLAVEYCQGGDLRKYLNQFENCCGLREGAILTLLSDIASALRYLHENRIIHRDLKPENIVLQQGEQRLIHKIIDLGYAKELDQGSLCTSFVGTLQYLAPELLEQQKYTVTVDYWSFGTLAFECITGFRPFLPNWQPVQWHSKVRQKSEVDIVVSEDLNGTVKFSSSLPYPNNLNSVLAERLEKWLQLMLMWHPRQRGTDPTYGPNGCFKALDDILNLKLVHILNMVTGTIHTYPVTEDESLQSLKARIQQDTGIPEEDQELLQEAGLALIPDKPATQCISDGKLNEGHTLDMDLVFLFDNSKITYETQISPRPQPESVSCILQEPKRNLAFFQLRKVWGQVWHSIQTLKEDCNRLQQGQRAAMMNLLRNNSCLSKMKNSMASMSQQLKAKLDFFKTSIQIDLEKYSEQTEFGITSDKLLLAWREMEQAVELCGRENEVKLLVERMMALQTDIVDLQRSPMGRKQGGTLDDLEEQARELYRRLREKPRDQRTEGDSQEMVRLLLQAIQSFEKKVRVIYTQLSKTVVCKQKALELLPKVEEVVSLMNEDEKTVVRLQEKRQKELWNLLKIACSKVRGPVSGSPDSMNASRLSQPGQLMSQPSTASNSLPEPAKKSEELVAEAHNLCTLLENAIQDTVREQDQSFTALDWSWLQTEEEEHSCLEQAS
In data set [6] the test system is differentiated human podocytes. Description: Oxygen consumption rate and extracellular acidification rate (Seahorse XFe96). The format is cell-based. How it is done: Subsequently, basal OCR, maximal respiration, ATP-linked respiration, and spare respiratory capacity were determined in the presence of oligomycin, carbonyl cyanide-p-trifluoromethoxyphenylhydrazone (FCCP), and rotenone/antimycin A. All OCR measurements were normalized for the number of cells per well using CyQuant reagent (Life Technologies).

Several values for one entry are separate records, joined by “and”; a condition that tells them apart may be missing. Identical values can stand only once.

Chain of hERG Human Potassium Ion Channel (Q12809 whole entry): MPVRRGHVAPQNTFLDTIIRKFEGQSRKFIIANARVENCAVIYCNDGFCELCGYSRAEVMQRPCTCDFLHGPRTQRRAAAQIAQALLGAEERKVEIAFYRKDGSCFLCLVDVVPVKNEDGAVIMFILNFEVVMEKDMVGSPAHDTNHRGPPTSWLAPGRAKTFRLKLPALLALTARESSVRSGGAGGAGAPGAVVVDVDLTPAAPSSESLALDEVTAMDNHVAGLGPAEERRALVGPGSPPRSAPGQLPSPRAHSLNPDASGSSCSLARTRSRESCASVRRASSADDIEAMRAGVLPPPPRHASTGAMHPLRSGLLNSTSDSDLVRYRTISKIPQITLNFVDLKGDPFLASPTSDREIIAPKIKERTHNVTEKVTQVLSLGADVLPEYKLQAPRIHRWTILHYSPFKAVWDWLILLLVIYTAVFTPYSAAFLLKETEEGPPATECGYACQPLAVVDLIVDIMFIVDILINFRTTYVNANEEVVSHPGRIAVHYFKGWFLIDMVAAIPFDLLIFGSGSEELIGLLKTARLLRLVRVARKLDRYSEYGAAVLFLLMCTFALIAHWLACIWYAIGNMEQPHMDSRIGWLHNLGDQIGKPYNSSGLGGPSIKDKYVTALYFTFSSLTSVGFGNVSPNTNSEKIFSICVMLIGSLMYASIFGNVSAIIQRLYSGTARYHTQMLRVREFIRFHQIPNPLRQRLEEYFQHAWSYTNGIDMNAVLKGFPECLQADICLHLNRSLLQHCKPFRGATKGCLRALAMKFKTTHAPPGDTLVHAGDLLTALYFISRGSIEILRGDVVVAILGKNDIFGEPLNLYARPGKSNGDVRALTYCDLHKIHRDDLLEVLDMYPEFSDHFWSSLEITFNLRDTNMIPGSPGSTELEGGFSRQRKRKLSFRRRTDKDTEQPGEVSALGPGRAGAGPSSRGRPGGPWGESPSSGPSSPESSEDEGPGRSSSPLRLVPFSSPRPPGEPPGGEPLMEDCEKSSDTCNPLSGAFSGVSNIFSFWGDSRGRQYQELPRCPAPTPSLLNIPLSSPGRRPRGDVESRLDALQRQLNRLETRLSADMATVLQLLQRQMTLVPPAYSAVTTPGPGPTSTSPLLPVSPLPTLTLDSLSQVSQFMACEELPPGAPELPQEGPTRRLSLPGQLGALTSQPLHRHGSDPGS
Method for IKBKB^M96V mutant: After the kinase reaction, an equal volume of ADP-Go™ Reagent is added to both terminate the kinase reaction and deplete the remaining ATP. Subsequently, the Detection Reagent is added to simultaneously convert ADP to ATP and measure the concentrations of newly synthesized ATP using a luciferase/luciferin reaction. The light generated is measured using a 96-well plate reader SpectraMax M3 (Molecular Devices). Luminescence can be correlated to ADP concentrations by using an ATP-to-ADP conversion curve.
From the text for mice: Serum was subsequently collected and mice were euthanized for collection of kidney, liver, and heart tissue.

The term EC50 denotes the concentration needed to bring the measured effect to its halfway point. As for `CSc1ccc(NC(=O)Nc2ccc(C)nc2)cc1` [BT503], the “DEGs involved in NF-κB signaling (GSEA, heatmap)” value in [1] is listed as “downregulation”. Besides, in data set [2], the EC50 was ~7.1 nM and < 10 nM. Further, in the data set on mice, the “aspartate aminotransferase (AST), alanine transaminase (ALT) levels” value is listed as “no significant difference”; the “histological changes in the kidney, heart, and liver tissue” value is “no significant difference”. Further, the “nuclear localization of p50 and p65” value in [3] (LPS-treated podocytes) is recorded as “mitigated this translocation”. The IκBα expression entry in data set [3] (vs DMSO in the setting of LPS treatment) was “significantly increased”. In data set [4] (3 μM), the “% inhibition mean” value worked out at 1.20%, the “% inhibition n1” value is on record as −2.01% and the “% inhibition n2” value is reported as 4.41%. In data set [4] (10 μM), the “% inhibition mean” value is recorded as 6.25%, the “% inhibition n1” value is listed as −0.08% and the “% inhibition n2” value was 12.57%. Further, the hERG inhibition result in data set [4] (3-10 μM, as compared to positive control) was “low inhibition”. For the same compound, the “toxicity to human podocytes” value in the data set with human podocytes (analogue screen) was “no observed toxicity”. In the data set with human podocytes (as compared to DMSO-treated podocytes), the “renilla activity (cell viability) in the setting of LPS treatment” value was “restored renilla activity”. Also, the “KLF15 activity in the setting of LPS treatment” value in [5] was “maintained the elevated KLF15 activity”. Also, the “IKKβ kinase inhibition in IKBKB^M96V mutant as compared to IKBKB^WT” value on IKBKB^M96V mutant was “resistance to IKKβ kinase inhibition”. Further, the “basal respiration, maximal respiration, ATP-linked respiration, and spare respiratory capacity” value in data set [6] (3-10 μM) was “No significant differences”. Further, the “oxygen consumption rate (OCR) and extracellular acidification rate (ECAR)” value in [6] (as compared to DMSO or DEX) was “no significant differences”.
